From patent publication US10766912B2 (priority 2017, dated 2020) come the findings set out here.

Data set [1] deals with HCV GT1b/3a NS5A chimeric replicon. Description: Assay Example 1: activity against HCV GT1b/3a NS5A chimeric replicon. To be noted: Hepatitis C virus, Huh-7, 72 h, read-out: EC50 value GT1b/3a NS5A chimeric replicon. In kind it is cell-based. How it is done:
(§1) Cells: Huh 7 cell line and HCV GT1b/3a and GT1b/6a NS5A chimeric replicons and GT1b and GT1a wild-type replicon RNA.
(§2) Treatment of Compound: According to the assay final concentrations of the compounds in Table 2, DMSO stock solutions of the compounds were diluted and then added to a 96-well assay plate. The final concentration of DMSO was 0.5%.
(§3) The preparation of cells: After replicon plasmid DNA was linearized with a corresponding restriction enzyme, the DNA was transcribed into RNA by using T7RNA polymerase. Replicon RNA prepared by transcription in vitro was transfected into Huh-7 cells by electroporation. Transfected cells were seeded at a density of 10,000 cells per well into the 96-well assay plate containing the diluted compounds, and then the plate was placed in a 37° C. incubator with 5% CO2 and cultured for 3 days.
(§4) Drug activity assay: Luminescence signal value (RLU) was detected with Envision within 15 minutes using the luciferase assay reagent Britelite plus, and the original data (RLU) was used for the calculation of the activity of the compounds.
(§5) The activity of the compounds was calculated by using the equation below: Inhibition %=(ZPE−CPD)/(ZPE−HPE)×100%*
(§6) The cell viability percentages (Viability %) and the inhibition percentages (Inhibition %) were imported into GraphPad Prism software, respectively, and curves were fitted by using nonlinear regression method to obtain the corresponding curves of the compounds, and the cytotoxicity (CC50) thereof and inhibitory activity (EC50) values against the HCV replicon thereof.

A short description of data set [2]: in vitro. The format is cell-based. To be noted: human; Huh 7 cells with GT1b wild-type replicon, 3 days, CellTiter-Fluor. The protocol: as §1, §2, §3
Cell viability assay: A cell growth fluorescent titration detection reagent CellTiter-Fluor was added to the 96-well plate of the GT1b wild-type replicon. After the cells were cultured for 1 hour in a 37° C. incubator with 5% CO2, the fluorescence signal value (RFU) was detected by Envision, and the original data (RFU) was used for the calculation of the cytotoxicity of the compounds.
The cytotoxicity of the compounds was calculated by using the equation below: Cell Viability %=(CPD−HPE)/(ZPE−HPE)×100%*
as §6

The test system of data set [3] is HCV GT1b/5a NS5A chimeric replicon. Description: Assay Example 2: activity against GT1b/5a NS5A chimeric replicon. In kind it is cell-based. As to conditions: Hepatitis C virus, Huh-7, 72 h, read-out: EC50 Value GT1b/5a-NS5A-wt. The protocol: Cells: Huh-7 cells are liver cancer cell strains (from AppTec, USA), HCV GT1a and GT1b wild type (wt) replicons, GT1b/3a, GT1b/4a, GT1b/5a and GT1b/6a NS5A chimeric replicons.
Treatment of Compound: According to the assay final concentrations of the compounds in Table 5, DMSO stock solutions of the compounds were diluted and then added to a 96-well assay plate. The final concentration of DMSO was 0.5%.
(§7) The preparation of cells: After replicon plasmid DNA was linearized with a corresponding restriction enzyme, the DNA was transcribed into RNA by using T7 RNA polymerase. Replicon RNA prepared by transcription in vitro was transfected into Huh-7 cells by electroporation. Transfected cells were seeded at a density of 10,000 cells per well into the 96-well assay plate containing the diluted compounds, and then placed in a 37° C. incubator with 5% CO2 and cultured for 3 days.
as §4
The cytotoxicity of the compounds was calculated by using the equation below: Cell Viability %=(CPD−HPE)/(ZPE−HPE)×100%* The activity of the compounds was calculated by using the equation below: Inhibition %=(ZPE−CPD)/(ZPE−HPE)×100%*
The cell viability percentages (Viability %) and the inhibition percentages (Inhibition %) were imported into GraphPad Prism software, respectively, and curves were fitted by using nonlinear regression method to obtain the corresponding curves of the compounds, and the cytotoxicity (CC50) thereof and the inhibitory activity (EC50) values against the HCV replicon thereof.

For data set [4], the system named is GT1a-NS5A-L31V mutant replicon. Kind of data set: Assay Example 6: drug resistance, activity against GT1a-NS5A-L31V mutant replicon. As to conditions: for GT1a-NS5A-L31V Fold change: EC50 mutant versus GT1a-wt; for EC50: Hepatitis C virus, GT1A, Huh-7, 72 h, read-out: GT1a-NS5A-L31V EC50 value. In kind it is cell-based, hepatitis C virus. How it is done: (§8) Cells: Huh-7 cells are liver cancer cell strains (from AppTec, USA), HCVGT1a wild-type replicon and GT1a-NS5A-Y93H and GT1a-NS5A-L31V mutant replicons
(§9) Treatment of Compound: According to the assay final concentrations of the compounds in Table 11, DMSO stock solutions of the compounds were diluted and then added to a 96-well assay plate. The final concentration of DMSO was 0.5%.
as §7
(§10) Compound activity assay: Luminescence signal value (RLU) was detected with Envision within 5 minutes by using the luciferase assay reagent Britelite plus, and the original data (RLU) was used for the calculation of the activity of the compounds.
(§11) The activity of the compounds was calculated by using the equation below: Inhibition %=(CPD−ZPE)/(HPE−ZPE)×100%*
(§12) The compound activity percentages (Inhibition %) were imported into GraphPad Prism software, and curves were fitted by using nonlinear regression method to obtain the corresponding curves of the compounds and the inhibitory activity (EC50) values against the HCV replicon thereof.

The test system of data set [5] is HCV GT1b wild-type replicon. Kind of data set: Assay Example 1: activity against HCV GT1b wild-type replicon (luciferase, transient transfection). To be noted: Hepatitis C virus, 72 h, Huh 7 cells, 3 days. The format is cell-based. How it is done:
as §1, §2, §3, §4, §5, §6

The subject of data set [6] is hepatitis C virus HCVcc (GT2a, JFH-1). Description: Assay Example 3: activity against infective hepatitis C virus HCVcc (GT2a, JFH-1). The format is cell-based. To be noted: Huh-7.5.1, 72 h, read-out: EC50 Value GT2a HCVcc. How it is done: Cells: Huh7.5.1 cells and hepatitis C virus HCVcc (GT2a, JFH-1) infection system.
Treatment of Compound: According to the assay final concentrations of the compounds in Table 6, DMSO stock solutions of the compounds were diluted and then added to a 96-well assay plate. The final concentration of DMSO was 0.5%.
Viral infection: Huh7.5.1 cells were seeded in a 96-well cell culture plate, and the cells were cultured overnight at 37° C. in an incubator with 5% CO2 for later use. The compound and the HCVcc virus solution (MOI=0.1) were simultaneously added to the cells, and the virus infection was cultured for 3 days. Parallel cytotoxicity assay was identical to the method for the inhibition of the virus but without viral infection.
Drug activity assay: The activity of hRLuc was detected by the addition of Renilla luciferase assay reagent. The original data (RLU) was used for the calculation of the activity of the compounds.
The activity of the compounds was calculated by using the equation below: Inhibition %=(CPD−VC)/(CC−VC)×100%*
The cell viability percentages (Cell Viability %) and the compound activity percentages (Inhibition %) were imported into GraphPad Prism software, respectively, and curves were fitted by using nonlinear regression method to obtain the corresponding curves of the compounds, and the cytotoxicity (CC50) thereof and inhibitory activity (EC50) values against the HCV replicon thereof.

In data set [7] the test system is HCV GT1a wild-type replicon. Description: Assay Example 6: drug resistance, activity against HCV GT1a wild-type replicon. The format is cell-based. As to conditions: Hepatitis C virus, 72 h, Huh-7 cells, transient transfection, 3 days, read-out: GT1a-wt EC50 value. How it is done:
as §8, §9, §7, §10, §11, §12

Bounds are passed on as bounds.

As for `COC(=O)N[C@H](C(=O)N1CCC[C@H]1C(=O)Nc1ccc([C@@H]2CC[C@@H](c3ccc(NC(=O)[C@@H]4CCCN4C(=O)[C@@H](NC(=O)OC)[C@@H](C)OC)cc3)N2c2cc(F)c(N3CC[Si](C)(C)CC3)c(F)c2)cc1)[C@@H](C)OC` [Compound 1a, Methyl ((2S,2′S,3R,3′R)-((2S,2′S)-(((((2S,5S)-1-(4-(4,4-dimethylazasilinan-1-yl)-3,5-difluorophenyl)pyrrolidin-2,5-diyl)bis(4,1-phenylene))bis(azanediyl))bis(carbonyl))bis(pyrrolidin-2,1-diyl))bis(3-methoxy-1-oxobutan-1,2-diyl))dicarbamate], the EC50 came out at 3 pM in data set [1], 1.62 pM in data set [3] and 0.027 nM in data set [4]. The cytotoxic concentration (CC50) in data set [2] was more than 0.1 nM. Further, in data set [4], the “GT1a-NS5A-L31V Fold change” value is 40.9.
As to `COC(=O)N[C@H](C(=O)N1CCC[C@H]1C(=O)Nc1ccc([C@H]2CC[C@H](c3ccc4nc([C@@H]5CCCN5C(=O)[C@@H](NC(=O)OC)[C@@H](C)OC)[nH]c4c3)N2c2cc(F)c(N3CC[Si](C)(C)CC3)c(F)c2)cc1)[C@@H](C)OC` [Compound 6b], the EC50 was 6.7 pM in data set [5]; 2.4 pM in data set [1]; 1.37 pM in data set [6]; 4.32 pM in data set [3]; 2.2 pM in data set [7]; 0.022 nM in data set [4]. The molecule further yielded a 50% cytotoxic concentration (CC50) in data set [2] of more than 0.1 nM. For the same molecule, in data set [4], the “GT1a-NS5A-L31V Fold change” value worked out at 10.0.
